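Five compound concentrations were applied to cells in 96-well plates for 48 hours; endpoints were derived by simple linear interpolation of the resulting dose-response curve. GI50: concentration for 50% inhibition of growth.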 Calls of active or inactive are those of the source. No stated cut-off is given here; in the data, active = GI50 up to about 1.1 µM and inactive = higher. Where only a bound is given, the exact number is not on record here.

Here are results for eleven compounds from ChEMBL document CHEMBL1201862, “PubChem BioAssay data set” (2004).

Common to all, as to test: inhibition of tumour cell growth, NCI panel, 48 h
Assay [1] deals with SR.
For assay [2], the system named is K562.
Assay [3] has as its system NCI-H460.
Assay [4] deals with SK-MEL-28.
Assay [5] has as its system TK-10.
In assay [6] the test system is SW-620.
Assay [7] relates to MOLT-4.
Assay [8] deals with DU-145.
Assay [9] has as its system MDA-MB-231.
Assay [10] relates to KM12.
The test system of assay [11] is T47D.
Assay [12] has as its system MDA-N.
The subject of assay [13] is HL-60.
In assay [14] the test system is HOP-62.
Assay [15] concerns A498.
The subject of assay [16] is OVCAR-4.
The test system of assay [17] is OVCAR-3.
Assay [18] has as its system NCI-H23.
Assay [19] has as its system M14.
Assay [20] has as its system SF-539.

For `OC1(c2ccc(-c3ccccc3)cc2)c2ccccc2C2=NCCN21` (centres undefined), the GI50 in assay [1] is 33.8 µM (inactive); in assay [2] it was 70.5 µM (inactive); in assay [3] it was 45.8 µM (inactive); in assay [4], 21.7 µM (inactive); in assay [5], > 100 µM (inactive); in [6], 45.4 µM (inactive). For the same compound, the GI50 in assay [7] was 27.1 µM (inactive); in assay [8], > 100 µM (inactive); in [9] it was 56.1 µM (inactive); in assay [10] it was 22.9 µM (inactive); in assay [11] it was 86.9 µM (inactive); in [12], > 100 µM (inactive). Also, the GI50 is 33.7 µM (inactive) in assay [13]; 16.6 µM (inactive) in assay [14]; 31.6 µM (inactive) in assay [15]; 56.8 µM (inactive) in assay [16]; 19 µM (inactive) in assay [17]; 20.1 µM (inactive) in [18].
Regarding `O=c1[nH]c(=O)n(COC(CO)CO)cc1-c1ccccc1`, the GI50 in assay [1], in [2], in assay [3], in [4], in [5] and in assay [6] was > 100 µM (inactive) in each case. For the same compound, the GI50 in assay [7], in assay [8], in assay [9], in assay [10], in assay [11] and in assay [12] was > 100 µM (inactive) throughout. In addition, the GI50 in assay [13], in [14], in [16], in [19], in assay [17] and in [18] was > 100 µM (inactive) in each case.
For `C1CSCCSCCS1`, the GI50 in assay [20], in [1], in assay [2], in [3], in assay [4] and in assay [5] was > 100 µM (inactive) in each case. In addition, the GI50 in [6], in [7], in assay [8], in assay [9], in assay [10] and in assay [11] was > 100 µM (inactive) in each case. Further, the GI50 in assay [12], in assay [13], in assay [14], in assay [16], in [19] and in assay [17] was > 100 µM (inactive) each time. In addition, the GI50 in [18] is > 100 µM (inactive).
Turning to `Cc1nnc2n(c1=O)CCCN2C`, the GI50 in [20], in assay [1], in assay [2], in assay [3], in assay [4] and in assay [5] was > 100 µM (inactive) throughout. Moreover, the GI50 in assay [6], in assay [7], in [8], in assay [9], in assay [10] and in assay [11] was > 100 µM (inactive) each time. Further, the GI50 in [12], in assay [13], in [14], in assay [16], in assay [19] and in assay [17] was > 100 µM (inactive) each time. In addition, the GI50 in assay [18] was > 100 µM (inactive).
With `O=[N+]([O-])c1ccc2nc3n(c2c1)C(c1c(F)cccc1F)SC3` (centres undefined), the GI50 in assay [1] is 92.3 µM (inactive); in assay [2] it was > 10 µM (inactive); in [3], > 100 µM (inactive); in [4], > 100 µM (inactive); in [5], > 100 µM (inactive); in [6], > 100 µM (inactive). Moreover, the GI50 in assay [7] was > 100 µM (inactive); in assay [8] it was > 100 µM (inactive); in assay [9], > 100 µM (inactive); in assay [10], > 100 µM (inactive); in [11] it was > 10 µM (inactive); in assay [12] it was > 100 µM (inactive). Moreover, the GI50 in assay [14], in [15], in assay [17] and in assay [18] was > 100 µM (inactive) in each case.
As for `Nc1ccc2c(O)cc(O)nc2n1`, the GI50 in assay [20], in assay [1], in assay [2], in assay [3], in assay [4] and in assay [5] was > 100 µM (inactive) each time. Moreover, the GI50 in assay [6], in assay [7], in assay [8], in assay [9], in assay [10] and in assay [11] was > 100 µM (inactive) in each case. The GI50 in assay [12], in assay [13], in assay [16], in [19] and in assay [18] was > 100 µM (inactive) each time.
`CC(C(=O)ON1C(=O)CCC1=O)c1ccc(C(=O)c2ccccc2)s1` (centres undefined): the GI50 in assay [1], in assay [2], in assay [3], in assay [4], in assay [5] and in assay [6] was > 100 µM (inactive) throughout. Also, the GI50 in [7], in [8], in [9], in assay [10], in [11] and in assay [12] was > 100 µM (inactive) in each case. In addition, the GI50 in assay [14], in assay [15], in [16], in [19], in [17] and in assay [18] was > 100 µM (inactive) throughout.
Turning to `O=C(O)C1CCCN1Cc1cc2ccccc2c2ccccc12` (centres undefined), the GI50 is > 100 µM (inactive) in assay [20]; 40.1 µM (inactive) in assay [2]; > 100 µM (inactive) in assay [3]; > 100 µM (inactive) in [4]; > 100 µM (inactive) in assay [5]; > 100 µM (inactive) in assay [6]. Also, the GI50 in [7], in [8], in [9], in [10], in [11] and in assay [12] was > 100 µM (inactive) throughout. In addition, the GI50 in assay [13], in [14], in assay [15], in assay [16], in [19] and in assay [17] was > 100 µM (inactive) each time. In [18], the GI50 was > 100 µM (inactive).
As to `CC(C)c1cccc(C(C)C)c1NC(=O)/C(CC(=O)CC(c1ccccc1)c1c(O)c2ccccc2oc1=O)=N/O` (centres undefined), the GI50 in assay [20], in assay [2], in [3], in [4], in assay [5] and in assay [6] was > 100 µM (inactive) each time. The GI50 in assay [7], in assay [8], in assay [9], in assay [10], in [11] and in [12] was > 100 µM (inactive) in each case. Also, the GI50 in [13], in [14], in [15], in assay [16], in [19] and in assay [17] was > 100 µM (inactive) throughout. Also, the GI50 in assay [18] is > 100 µM (inactive).
Turning to `Nc1nc(N)c2nc(CN(C=O)c3ccc(C(=O)O)cc3)cnc2n1`, the GI50 in assay [20] was 8.26 µM (inactive); in [1], 10.1 µM (inactive); in assay [2], 1.6 µM (inactive); in assay [3] it was 7.55 µM (inactive); in assay [4], > 100 µM (inactive); in [5] it was > 29.2 µM (inactive). Besides, the GI50 is 17 µM (inactive) in [6]; 4.81 µM (inactive) in assay [7]; 7.38 µM (inactive) in [8]; > 100 µM (inactive) in assay [9]; 6.64 µM (inactive) in [10]; > 100 µM (inactive) in [11]. Further, the GI50 is 8.71 µM (inactive) in assay [12]; 18.8 µM (inactive) in assay [13]; 14 µM (inactive) in assay [14]; > 100 µM (inactive) in assay [16]; 7.43 µM (inactive) in assay [19]; > 100 µM (inactive) in assay [17]. For the same compound, the GI50 in assay [18] was 20 µM (inactive).
Turning to `COc1cc2c(c(OC)c1OC)-c1ccc(OC)c(=O)cc1[C@@H](NC(=O)c1ccccc1)CC2`, the GI50 is 0.155 µM (active) in [1]; < 0.0114 µM (active) in assay [2]; 1.86 µM (inactive) in assay [4]; 0.17 µM (active) in assay [5]; 0.0119 µM (active) in assay [6]; 0.0562 µM (active) in assay [7]. For the same compound, the GI50 in assay [8] is 0.0199 µM (active); in assay [9], 0.0151 µM (active); in [10], 0.0106 µM (active); in [11] it was 58.3 µM (inactive); in assay [12] it was < 0.01 µM (active); in assay [13] it was < 0.01 µM (active). Also, the GI50 in assay [14] is 0.0379 µM (active); in [15], < 0.0121 µM (active); in [19], 0.0118 µM (active); in assay [17], < 0.0103 µM (active); in assay [18], 0.0128 µM (active).
